Test results: ChEMBL document CHEMBL3779848, “Effect of chlorine substituent on cytotoxic activities: Design and synthesis of systematically modified 2,4-diphenyl-5H-indeno[1,2-b]pyridines” (Bioorg Med Chem Lett, 2016)

System: not listed separately
Experiment: Potency index, ratio of IC50 for adriamycin to IC50 for test compound for cytotoxicity against human HCT15 cells
Format: functional, HCT-15
Conditions: not given

| SMILES | Ratio IC50 |
| --- | --- |
| Oc1ccc(-c2cc(-c3ccc(Cl)cc3)nc3c2Cc2ccccc2-3)cc1 | 0.11 |
| Oc1cccc(-c2cc(-c3ccc(Cl)cc3)c3c(n2)-c2ccccc2C3)c1 | 0.05 |
| Oc1cccc(-c2cc(-c3ccccc3Cl)c3c(n2)-c2ccccc2C3)c1 | 0.08 |
| Oc1cccc(-c2cc(-c3ccccc3Cl)nc3c2Cc2ccccc2-3)c1 | 0.25 |
| Oc1ccc(-c2cc(-c3ccccc3Cl)c3c(n2)-c2ccccc2C3)cc1 | 0.12 |
| Oc1ccc(-c2cc(-c3ccc(Cl)cc3)c3c(n2)-c2ccccc2C3)cc1 | 0.11 |
| Oc1ccc(-c2cc(-c3ccccc3)nc3c2Cc2ccccc2-3)cc1 | 0.57 |

System: not listed separately
Experiment: Cytotoxicity against human HCT15 cells after 3 days by CCK8 assay
Format: functional, cell-based
Conditions: HCT-15, 72 h

| SMILES | IC50 |
| --- | --- |
| Oc1ccc(-c2cc(-c3ccc(Cl)cc3)nc3c2Cc2ccccc2-3)cc1 | 870 nM |
| Oc1cccc(-c2cc(-c3ccc(Cl)cc3)c3c(n2)-c2ccccc2C3)c1 | 2090 nM |
| Oc1cccc(-c2cc(-c3ccccc3Cl)c3c(n2)-c2ccccc2C3)c1 | 1170 nM |
| Oc1cccc(-c2cc(-c3ccccc3Cl)nc3c2Cc2ccccc2-3)c1 | 400 nM |
| Oc1ccc(-c2cc(-c3ccccc3Cl)c3c(n2)-c2ccccc2C3)cc1 | 840 nM |
| Oc1ccc(-c2cc(-c3ccc(Cl)cc3)c3c(n2)-c2ccccc2C3)cc1 | 930 nM |
| Oc1ccc(-c2cc(-c3ccccc3)nc3c2Cc2ccccc2-3)cc1 | 2150 nM |

Target: DNA topoisomerase 2-alpha (Homo sapiens) (UniProt P11388)
Experiment: Inhibition of human recombinant DNA topoisomerase 2alpha at 100 uM assessed as relaxation of supercoiled DNA pBR322 after 30 mins by Agarose gel electrophoresis
Conditions: not given

Chain of DNA topoisomerase 2-alpha (Homo sapiens) (P11388 whole entry): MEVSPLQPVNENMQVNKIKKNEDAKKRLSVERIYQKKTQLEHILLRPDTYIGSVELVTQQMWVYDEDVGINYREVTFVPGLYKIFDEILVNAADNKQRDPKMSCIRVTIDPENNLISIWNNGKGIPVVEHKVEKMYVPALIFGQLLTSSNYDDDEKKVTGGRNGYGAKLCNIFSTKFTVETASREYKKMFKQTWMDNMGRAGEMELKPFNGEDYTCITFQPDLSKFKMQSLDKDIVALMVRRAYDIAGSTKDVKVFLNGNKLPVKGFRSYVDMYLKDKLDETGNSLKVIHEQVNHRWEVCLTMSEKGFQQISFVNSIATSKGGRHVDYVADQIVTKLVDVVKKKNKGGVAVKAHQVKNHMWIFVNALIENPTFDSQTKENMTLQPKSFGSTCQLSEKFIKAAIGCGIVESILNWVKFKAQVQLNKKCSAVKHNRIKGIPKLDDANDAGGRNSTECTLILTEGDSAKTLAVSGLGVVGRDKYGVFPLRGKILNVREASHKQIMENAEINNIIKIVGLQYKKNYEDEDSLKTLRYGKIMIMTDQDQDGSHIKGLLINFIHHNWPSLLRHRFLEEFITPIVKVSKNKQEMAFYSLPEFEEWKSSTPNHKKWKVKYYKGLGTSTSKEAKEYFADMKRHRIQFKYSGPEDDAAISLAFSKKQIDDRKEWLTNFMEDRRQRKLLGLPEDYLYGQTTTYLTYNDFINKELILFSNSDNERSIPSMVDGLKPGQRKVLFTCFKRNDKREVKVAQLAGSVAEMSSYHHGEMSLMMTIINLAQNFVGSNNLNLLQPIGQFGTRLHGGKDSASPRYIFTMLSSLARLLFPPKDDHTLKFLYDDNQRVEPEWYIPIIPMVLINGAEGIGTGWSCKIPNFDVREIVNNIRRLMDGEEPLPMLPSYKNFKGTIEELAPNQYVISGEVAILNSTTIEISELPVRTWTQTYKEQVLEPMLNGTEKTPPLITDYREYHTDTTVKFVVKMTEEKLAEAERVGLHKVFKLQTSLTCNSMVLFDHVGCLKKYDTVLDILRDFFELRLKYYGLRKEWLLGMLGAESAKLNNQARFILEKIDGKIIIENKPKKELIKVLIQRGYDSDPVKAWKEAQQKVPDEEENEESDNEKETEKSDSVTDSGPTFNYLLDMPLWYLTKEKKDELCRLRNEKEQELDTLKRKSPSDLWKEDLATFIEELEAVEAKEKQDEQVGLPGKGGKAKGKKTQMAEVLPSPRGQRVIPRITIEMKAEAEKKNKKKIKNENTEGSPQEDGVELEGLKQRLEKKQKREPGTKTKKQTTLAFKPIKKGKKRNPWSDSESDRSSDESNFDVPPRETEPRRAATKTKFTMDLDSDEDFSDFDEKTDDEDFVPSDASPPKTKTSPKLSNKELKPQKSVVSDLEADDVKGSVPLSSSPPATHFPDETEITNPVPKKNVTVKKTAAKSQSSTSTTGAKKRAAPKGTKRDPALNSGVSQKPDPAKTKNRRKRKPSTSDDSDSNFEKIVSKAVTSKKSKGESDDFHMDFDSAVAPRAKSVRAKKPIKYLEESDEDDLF

| inhibition | SMILES |
| --- | --- |
| 3.2% | Oc1ccc(-c2cc(-c3ccc(Cl)cc3)nc3c2Cc2ccccc2-3)cc1 |
| 3.8% | Oc1cccc(-c2cc(-c3ccc(Cl)cc3)c3c(n2)-c2ccccc2C3)c1 |
| 6.7% | Oc1cccc(-c2cc(-c3ccccc3Cl)c3c(n2)-c2ccccc2C3)c1 |
| 3.1% | Oc1cccc(-c2cc(-c3ccccc3Cl)nc3c2Cc2ccccc2-3)c1 |
| 1.6% | Oc1ccc(-c2cc(-c3ccccc3Cl)c3c(n2)-c2ccccc2C3)cc1 |
| 8.5% | Oc1ccc(-c2cc(-c3ccc(Cl)cc3)c3c(n2)-c2ccccc2C3)cc1 |
| 65.9% | Oc1ccc(-c2cc(-c3ccccc3)nc3c2Cc2ccccc2-3)cc1 |

System: HeLa
Experiment: Potency index, ratio of IC50 for adriamycin to IC50 for test compound for cytotoxicity against human HeLa cells
Format: functional
Conditions: not given

| SMILES | Ratio IC50 |
| --- | --- |
| Oc1ccc(-c2cc(-c3ccc(Cl)cc3)nc3c2Cc2ccccc2-3)cc1 | 0.19 |
| Oc1cccc(-c2cc(-c3ccc(Cl)cc3)c3c(n2)-c2ccccc2C3)c1 | 0.36 |
| Oc1cccc(-c2cc(-c3ccccc3Cl)c3c(n2)-c2ccccc2C3)c1 | 0.31 |
| Oc1cccc(-c2cc(-c3ccccc3Cl)nc3c2Cc2ccccc2-3)c1 | 0.41 |
| Oc1ccc(-c2cc(-c3ccccc3Cl)c3c(n2)-c2ccccc2C3)cc1 | 0.24 |
| Oc1ccc(-c2cc(-c3ccc(Cl)cc3)c3c(n2)-c2ccccc2C3)cc1 | 0.33 |
| Oc1ccc(-c2cc(-c3ccccc3)nc3c2Cc2ccccc2-3)cc1 | 0.18 |

Target: T1, DNA topoisomerase 1 (Homo sapiens) (UniProt P11387)
T1 sequence (whole entry): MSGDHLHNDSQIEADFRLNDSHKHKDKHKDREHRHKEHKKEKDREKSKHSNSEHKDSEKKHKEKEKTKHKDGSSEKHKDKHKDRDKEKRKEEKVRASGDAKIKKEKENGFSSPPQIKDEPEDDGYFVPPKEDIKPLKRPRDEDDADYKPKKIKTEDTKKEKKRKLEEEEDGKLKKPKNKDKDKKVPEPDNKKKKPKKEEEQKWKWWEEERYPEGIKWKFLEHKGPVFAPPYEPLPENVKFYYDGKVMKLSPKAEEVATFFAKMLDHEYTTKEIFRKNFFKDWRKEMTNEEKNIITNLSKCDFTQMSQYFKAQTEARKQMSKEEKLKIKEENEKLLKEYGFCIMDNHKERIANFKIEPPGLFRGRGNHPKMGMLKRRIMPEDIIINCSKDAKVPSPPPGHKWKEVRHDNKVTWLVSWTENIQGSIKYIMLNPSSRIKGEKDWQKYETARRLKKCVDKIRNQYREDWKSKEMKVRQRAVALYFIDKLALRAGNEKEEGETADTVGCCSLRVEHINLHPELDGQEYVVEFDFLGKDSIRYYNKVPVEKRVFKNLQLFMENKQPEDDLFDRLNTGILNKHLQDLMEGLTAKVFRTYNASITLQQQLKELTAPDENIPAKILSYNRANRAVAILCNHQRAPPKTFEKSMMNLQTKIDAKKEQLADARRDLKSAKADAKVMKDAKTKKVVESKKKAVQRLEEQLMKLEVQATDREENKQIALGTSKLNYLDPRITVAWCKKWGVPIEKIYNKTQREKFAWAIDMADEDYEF
Experiment: Inhibition of human recombinant DNA topoisomerase 1 at 100 uM assessed as relaxation of supercoiled DNA pBR322 after 30 mins by Agarose gel electrophoresis
Conditions: not given

| inhibition | SMILES |
| --- | --- |
| 1.4% | Oc1ccc(-c2cc(-c3ccc(Cl)cc3)nc3c2Cc2ccccc2-3)cc1 |
| 5.8% | Oc1cccc(-c2cc(-c3ccc(Cl)cc3)c3c(n2)-c2ccccc2C3)c1 |
| 29.3% | Oc1cccc(-c2cc(-c3ccccc3Cl)c3c(n2)-c2ccccc2C3)c1 |
| 0% | Oc1cccc(-c2cc(-c3ccccc3Cl)nc3c2Cc2ccccc2-3)c1 |
| 15.5% | Oc1ccc(-c2cc(-c3ccccc3Cl)c3c(n2)-c2ccccc2C3)cc1 |
| 19.1% | Oc1ccc(-c2cc(-c3ccc(Cl)cc3)c3c(n2)-c2ccccc2C3)cc1 |
| 25.9% | Oc1ccc(-c2cc(-c3ccccc3)nc3c2Cc2ccccc2-3)cc1 |

System: HeLa
Experiment: Cytotoxicity against human HeLa cells after 3 days by CCK8 assay
Format: functional, cell-based
Conditions: 72 h

| SMILES | IC50 |
| --- | --- |
| Oc1ccc(-c2cc(-c3ccc(Cl)cc3)nc3c2Cc2ccccc2-3)cc1 | 4340 nM |
| Oc1cccc(-c2cc(-c3ccc(Cl)cc3)c3c(n2)-c2ccccc2C3)c1 | 2270 nM |
| Oc1cccc(-c2cc(-c3ccccc3Cl)c3c(n2)-c2ccccc2C3)c1 | 2650 nM |
| Oc1cccc(-c2cc(-c3ccccc3Cl)nc3c2Cc2ccccc2-3)c1 | 2010 nM |
| Oc1ccc(-c2cc(-c3ccccc3Cl)c3c(n2)-c2ccccc2C3)cc1 | 3410 nM |
| Oc1ccc(-c2cc(-c3ccc(Cl)cc3)c3c(n2)-c2ccccc2C3)cc1 | 2450 nM |
| Oc1ccc(-c2cc(-c3ccccc3)nc3c2Cc2ccccc2-3)cc1 | 4840 nM |

System: T47D
Experiment: Cytotoxicity against human T47D cells after 3 days by CCK8 assay
Format: functional, cell-based
Conditions: 72 h

| SMILES | IC50 |
| --- | --- |
| Oc1ccc(-c2cc(-c3ccc(Cl)cc3)nc3c2Cc2ccccc2-3)cc1 | 1270 nM |
| Oc1cccc(-c2cc(-c3ccc(Cl)cc3)c3c(n2)-c2ccccc2C3)c1 | 1490 nM |
| Oc1cccc(-c2cc(-c3ccccc3Cl)c3c(n2)-c2ccccc2C3)c1 | 2190 nM |
| Oc1cccc(-c2cc(-c3ccccc3Cl)nc3c2Cc2ccccc2-3)c1 | 310 nM |
| Oc1ccc(-c2cc(-c3ccccc3Cl)c3c(n2)-c2ccccc2C3)cc1 | 1630 nM |
| Oc1ccc(-c2cc(-c3ccc(Cl)cc3)c3c(n2)-c2ccccc2C3)cc1 | 880 nM |
| Oc1ccc(-c2cc(-c3ccccc3)nc3c2Cc2ccccc2-3)cc1 | 1360 nM |

System: T47D
Experiment: Potency index, ratio of IC50 for adriamycin to IC50 for test compound for cytotoxicity against human T47D cells
Format: functional
Conditions: not given

| SMILES | Ratio IC50 |
| --- | --- |
| Oc1ccc(-c2cc(-c3ccc(Cl)cc3)nc3c2Cc2ccccc2-3)cc1 | 1.16 |
| Oc1cccc(-c2cc(-c3ccc(Cl)cc3)c3c(n2)-c2ccccc2C3)c1 | 0.99 |
| Oc1cccc(-c2cc(-c3ccccc3Cl)c3c(n2)-c2ccccc2C3)c1 | 0.67 |
| Oc1cccc(-c2cc(-c3ccccc3Cl)nc3c2Cc2ccccc2-3)c1 | 4.74 |
| Oc1ccc(-c2cc(-c3ccccc3Cl)c3c(n2)-c2ccccc2C3)cc1 | 0.9 |
| Oc1ccc(-c2cc(-c3ccc(Cl)cc3)c3c(n2)-c2ccccc2C3)cc1 | 1.67 |
| Oc1ccc(-c2cc(-c3ccccc3)nc3c2Cc2ccccc2-3)cc1 | 0.98 |
